Experimental data from US8530513B1, “Pharmaceutical uses of diterpene excavatolide B from a coral or an analogue thereof” (National Sun Yat-Sen University, priority 2012, dated 2013).

Key:
[1] = test system: NF-κB; assay: TPA-induced NF-κB phosphorylation in mouse skin, western blot; format: in vivo; settings: topical for 2 h after TPA
Procedure: Shaven abdominal skins of female C57BL/6JNarl mice were not treated or topically treated with vehicle (acetone, 200 μl/site) or TPA (10 nmol in 200 μl acetone/site) at indicated time points or treated first with TPA for 10 min, then with the indicated concentrations of BrD1 at the indicated time points. Abdominal skin samples were collected, homogenated and lysed to prepare total proteins. Protein samples were subsequently resolved by SDS-PAGE using a gradient gel. The resolved proteins were transferred to a PVDF Immobilon-P membrane (Millipore, Bedford, Calif.), and the membrane was blocked with 5% non-fat dry milk in PBST buffer (phosphate-buffered saline (PBS) containing 0.1% Tween 20) for 60 minutes at room temperature. The membranes were incubated overnight at 4° C. with commercially available antibodies (1:1000 dilutions). Loading of equal amounts of protein was assessed using mouse β-actin. The blots were rinsed three times with PBST buffer for 5 minutes. Washed blots were incubated with HRP-conjugated secondary antibody (1:100,000 dilution), then washed again three times with PBST buffer. […] Quantification of bands was performed using Image J software.
We therefore evaluated whether BrD1 could interfere with TPA-induced activation of Akt and Erk in inflamed skin. […] We thus determined the phosphorylation level of Akt, Erk, NF-κB and IκBα in skins subjected to different treatments. […]

[2] = test system: abdominal skins of female C57BL/6 mice; assay: TPA-induced vascular permeability assay (Evans blue extravasation); format: in vivo, mouse; settings: Evans blue OD 620 nm
Procedure: TPA-induced vascular permeability assay was modified and performed as previously described (Thurston G, Suri C, Smith K, McClain J, Sato T N, Yancopoulos G D, McDonald D M. Science 1999, 286:2511-2514). Shaved abdominal skins of female C57BL/6JNarl mice were topically treated with vehicle (acetone, 200 μl/site) or TPA (10 nmol in 200 μl acetone/site) for 6 h or treated with TPA for 10 min and subsequently treated for 6 h with the indicated concentrations of BrD1. Abdominal skins of untreated mice were used as the control group. One percent Evans blue dye (100 μl) was injected into mouse tail veins. After 20 min, anatomical appearances of mouse abdomens from the various treatments were photographically recorded. Abdominal skins representative of each test group were removed, turned over and photographed. Evans blue dye extravasated into the skins was extracted by incubation of the skin samples in 99% N,N-dimethyl-formamide overnight at 60° C. and optical density was measured at 620 nm.
Acute inflammatory reactions are known to include changes in vascular permeability, edema and cellular infiltration (Rao T S, Currie J L, Shaffer A F, Isakson P C. Inflammation 1993, 17:723-741). In order to evaluate the anti-inflammatory effect of BrD1 on TPA-induced dermatitis in a murine model, we initially evaluated the possible inhibitory effect of BrD1 on TPA-induced vascular permeability. […]

[3] = test system: COX-2; assay: TPA-induced COX-2 expression in mouse skin, immunohistochemical staining; format: in vivo; settings: topical for 6 h after TPA, anti-COX-2 immunostaining
[4] = test system: abdominal skins of female C57BL/6 mice; assay: TPA-induced edema, H&E-stained skin sections; format: in vivo, mouse; settings: topical 1 mg/site for 6 h after TPA
Procedure: Mice were treated or not treated topically on their shaven abdomens with acetone (vehicle only) or TPA (10 nmol in 200 μl acetone/site) for 6 h or treated first with TPA for 10 min, then with the indicated concentrations of BrD1 for 6 h. Mice were killed by cervical dislocation. Abdominal skin tissues were collected, fixed with formalin buffer and embedded in paraffin. Tissue sections ([…]) were cut and laid onto silanized glass slides and deparaffinized three times with xylene for 5 min each prior to rehydration using a graded alcohol bath. For hematoxyline and eosin staining, the sections were stained with hematoxyline and eosin staining. For immunohistochemical staining, the deparaffinized sections were boiled in 10 mM citrate buffer (pH 6.0) for 10 min for antigen retrieval and rinsed with PBS containing 0.05% Tween-20 buffer for 5 min. The sections were treated with 3% hydrogen peroxide in methanol for 15 min to decrease non-specific binding. […] Subsequently, peroxidase-binding sites were determined by staining with 3,3′-diaminobenzidine tetrahydrochloride (Dako). […]
Since increased vascular permeability is one of factors contributing to the formation of edema, we next evaluated whether BrD1 inhibited formation of edema in TPA-induced inflammation by examining H&E-stained longitudinal sections of skin samples.

For `CCCC(=O)O[C@H]1C/C(C)=C\[C@@H]2OC(=O)[C@]3(C)O[C@]23[C@@H](OC(C)=O)[C@H]2[C@@H](C)[C@@H](O)C[C@H](OC(C)=O)[C@]2(C)[C@H]1OC(C)=O` [BrD1, excavatolide B], the “phosphorylation of NF-κB” value [1] was “effectively inhibited the phoshporylation of NF-κB”, the “phosphorylation of NF-κB” value ([1]; listed as excavatolide B) was “effectively inhibits the phoshporylation of NF-κB” and the “level of inhibition of TPA-induced vascular permeability” value ([2]; 0.5 mg/site topical for 6 h after TPA (10 nmol) 10 min) was “approximately 58%”. The “level of inhibition of TPA-induced vascular permeability” value ([2]; 1 mg/site topical for 6 h after TPA (10 nmol) 10 min) was about 77%, the “TPA-induced COX-2 expression” value [3] was “reduced the TPA-induced COX-2 expression in the epidermis” and the “TPA-induced COX-2 expression” value ([3]; listed as excavatolide B) was “reduces the TPA-induced COX-2 expression in the epidermis”. For the same compound, the “skin thickness (TPA-induced edema)” value [4] was “substantially decreased the skin thickness” and the “skin thickness (TPA-induced edema)” value ([4]; listed as excavatolide B) was “substantially decreases the skin thickness”.
